Results from PubChem BioAssay AID1648 (Sanford-Burnham Center for Chemical Genomics, 2009).
Activity calls are given as the source filed them. How the calls were made is not given here.

Biological target: Serine/threonine-protein kinase mTOR (Homo sapiens) (UniProt P42345)
Assay: mTOR FRB domain ligand binding – biophysical, NMR (AID 1648)
Details: NMR binding to FRB domain, chemical shift

Sequence of Serine/threonine-protein kinase mTOR (Homo sapiens) (P42345 2015-2114): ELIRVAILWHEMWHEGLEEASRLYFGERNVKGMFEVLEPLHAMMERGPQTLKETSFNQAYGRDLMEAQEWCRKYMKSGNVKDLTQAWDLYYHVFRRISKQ

| SMILES | Kd |
| --- | --- |
| Nc1ncnc2c1ncn2CCN1CCOCC1 | > 4 mM (inactive) |
| NS(=O)(=O)c1ccc(N2CCCC2=O)cc1 | > 4 mM (inactive) |
| COc1ccc2c(c1OC)C(=O)O[C@@H]2[C@@H]1c2cc3c(cc2CCN1C)OCO3 | > 4 mM (inactive) |
| NS(=O)(=O)c1ccc(NC(=O)c2cccs2)cc1 | > 4 mM (inactive) |
| COC(=O)CSc1nnc(-c2ccc(C(=O)O)cc2)o1 | > 4 mM (inactive) |
| OCCCc1nc2ccc(C(F)(F)F)cc2[nH]1 | > 4 mM (inactive) |
| NCc1ccc(S(=O)(=O)O)cc1 | > 4 mM (inactive) |
| Cc1cc2cc(N)ccc2[nH]1 | > 4 mM (inactive) |
| O=C1CC(c2c[nH]c3ccccc23)C(=O)N1 (stereo unspecified) | > 4 mM (inactive) |
| NC1CCN(Cc2ccccc2)CC1 | > 4 mM (inactive) |
| COC(=O)c1sc(N)nc1C | > 4 mM (inactive) |
| CC(=O)CS(=O)(=O)c1ccccc1 | > 4 mM (inactive) |
| CN1C(=O)c2ccc(C(=O)NC3CCCCC3)cc2C1=O | > 4 mM (inactive) |
| C[C@]12CCC(=O)C=C1CCC1C2C(=O)C[C@@]2(C)C1CC[C@]2(O)C(=O)CO (stereo partly specified) | > 4 mM (inactive) |
| CNc1nc(SC)nc(N2CCOCC2)n1 | > 4 mM (inactive) |
| c1ccc(CCNc2ncnc3nc[nH]c23)cc1 | > 4 mM (inactive) |
| CC1(C)C(=O)CC[C@@]2(C)C1C[C@@H](O)[C@@]1(C)C3=CC(=O)O[C@@H](c4ccoc4)[C@]3(C)CCC21 (stereo partly specified) | > 4 mM (inactive) |
| O=C(NN=C1CCCC1)c1ccncc1 | > 4 mM (inactive) |
| Nc1ncnc2nc(SCCN3CCCCC3)[nH]c12 | > 4 mM (inactive) |
| O=C(O)c1cccc(O)c1O | > 4 mM (inactive) |
| OCc1c[nH]c2ccccc12 | > 4 mM (inactive) |
| Fc1ccc(NC2=NCCS2)cc1Cl | > 4 mM (inactive) |
| Cc1ccn(S(=O)(=O)c2ccc(F)cc2)n1 | > 4 mM (inactive) |
| O=C(NN1C(=O)CSC1=S)c1ccccc1 | > 4 mM (inactive) |
| Cc1cc(C)n(S(=O)(=O)c2ccc(C(C)(C)C)cc2)n1 | > 4 mM (inactive) |

| SMILES | Kd |
| --- | --- |
| NC(=O)C1CC2C=CC1C2 (stereo unspecified) | > 4 mM (inactive) |
| COc1cc([C@@H]2c3cc4c(cc3[C@H](OC(C)=O)[C@H]3COC(=O)[C@@H]23)OCO4)cc(OC)c1OC | > 4 mM (inactive) |
| N[C@@H](CCC(=O)N[C@@H](CS)C(=O)NCC(=O)O)C(=O)O | > 4 mM (inactive) |
| O=c1ccc2ccccc2o1 | > 4 mM (inactive) |
| Cc1cc(=O)n2nc(-c3ccccc3)sc2n1 | > 4 mM (inactive) |
| COc1ccc(S(=O)(=O)Nc2ccccn2)c(C)c1C | > 4 mM (inactive) |
| Cc1noc(C)c1C(=O)N1CCc2ccccc2C1 | > 4 mM (inactive) |
| O=C1c2ccccc2C(=O)c2c1ccc(O)c2O | > 4 mM (inactive) |
| Cc1cc(S(=O)(=O)N2CCOCC2)ccc1F | > 4 mM (inactive) |
| Cc1nn2c(=O)nc3sc4c(c3c2[nH]c1=O)CCCC4 | > 4 mM (inactive) |
| Cc1cc(N)on1 | > 4 mM (inactive) |
| O=C(CS(=O)(=O)c1ccccc1)Nc1nccs1 | > 4 mM (inactive) |
| CCOC(=O)CNC(=O)CSc1nnc(C)c(=O)[nH]1 | > 4 mM (inactive) |
| CC(=O)O[C@@H]1C=C[C@@]2(C)C(C[C@@H](OC(C)=O)[C@@]3(C)C4=CC(=O)O[C@@H](c5ccoc5)[C@]4(C)CCC23)C1(C)C (stereo partly specified) | > 4 mM (inactive) |
| S=c1nc[nH]c2c1cnn2-c1ccccc1 | > 4 mM (inactive) |
| O=C1CSC(=O)N1CNc1ccccc1 | > 4 mM (inactive) |
| Cc1ccc(-c2nnn(CC(=O)O)n2)cc1 | > 4 mM (inactive) |
| CN(C)C(=O)c1ccccc1-c1ccccc1 | > 4 mM (inactive) |
| NCc1cccc2nsnc12 | > 4 mM (inactive) |
| Cc1ccccc1-n1c(-c2cccnc2)n[nH]c1=S | > 4 mM (inactive) |
| CSc1nc(NC(C)C)nc(N2CCOCC2)n1 | > 4 mM (inactive) |
| NC(Cc1c[nH]c2ccccc12)C(=O)O (stereo unspecified) | > 4 mM (inactive) |
| Cc1cc(C)n(/N=C\c2cccs2)c(=O)c1C(N)=O | > 4 mM (inactive) |
| O=C(NC1=NCCS1)c1ccc(Cl)s1 | > 4 mM (inactive) |
| Cc1csc(CCc2nc(C)cs2)n1 | > 4 mM (inactive) |

| SMILES | Kd |
| --- | --- |
| Brc1ccc(-c2nc(-c3ccncc3)no2)o1 | > 4 mM (inactive) |
| Nc1ccc(Cc2ccc(N)cc2)cc1 | > 4 mM (inactive) |
| Cc1cc(=O)n2[nH]c(COc3ccccc3)nc2n1 | > 4 mM (inactive) |
| NCc1nc2ccccc2s1 | > 4 mM (inactive) |
| CCNS(=O)(=O)c1cc(Br)ccc1OC | > 4 mM (inactive) |
| O=C(Nc1nncs1)c1c(F)cccc1F | > 4 mM (inactive) |
| O=C1COc2cc(O)ccc21 | > 4 mM (inactive) |
| Cc1noc(-c2ccccc2)c1CO | > 4 mM (inactive) |
| Cc1cc(N)n(C2CCOC(C)(C)C2)n1 (stereo unspecified) | > 4 mM (inactive) |
| CC(C)=CCCC1(C)C=Cc2c(O)c3c(c(CC=C(C)C)c2O1)OC12C(=CCCC1C(C)(C)O[C@@]2(C/C=C(\C)C(=O)O)C(=O)O)C3=O (stereo partly specified) | > 4 mM (inactive) |
| COc1c(C(C)C)oc2cc3oc(=O)ccc3cc12 | > 4 mM (inactive) |
| O=C(Nc1ccccc1)Nc1ccccc1 | > 4 mM (inactive) |
| CC(C)(C)c1ccc(SCC(N)=O)cc1 | > 4 mM (inactive) |
| CC1(C)CC(NC(=O)/C=C/C(=O)O)CC(C)(C)N1 | > 4 mM (inactive) |
| Nc1cc2ccccc2cn1 | > 4 mM (inactive) |
| O=C(Nc1ccccn1)c1cc(-n2cnnc2)ccc1Cl | > 4 mM (inactive) |
| Cc1nc(-c2cc(CO)no2)cs1 | > 4 mM (inactive) |
| CP(C)(=O)c1cccc(C(=O)O)c1 | > 4 mM (inactive) |
| O=C1NC(=Nc2ccc(O)cc2)S/C1=C/c1ccco1 | > 4 mM (inactive) |
| O=c1nc(N2CCOCC2)nc2n1CCO2 | > 4 mM (inactive) |
| C[C@]12C=CC(=O)C=C1CCC1C2CC[C@]2(C)C(=O)CCC12 (stereo partly specified) | > 4 mM (inactive) |
| OCc1ccc2occc2c1 | > 4 mM (inactive) |
| COC(=O)c1cc2cc(N)ccc2s1 | > 4 mM (inactive) |
| Cc1cc(=O)[nH]c(N)n1 | > 4 mM (inactive) |
| Oc1ccccc1N1CCCC1 | > 4 mM (inactive) |

| SMILES | Kd |
| --- | --- |
| Cc1cccc(NC(=O)NC(N)=O)c1 | > 4 mM (inactive) |
| Cc1cc(N(CN2CCCC2=O)C(=O)c2ccccc2)no1 | > 4 mM (inactive) |
| Nc1nc(-c2nc3ccccc3[nH]2)cs1 | > 4 mM (inactive) |
| CC(=O)c1csc(-c2cc(C)on2)n1 | > 4 mM (inactive) |
| O=C(O[C@@H]1Cc2c(O)cc(O)cc2O[C@@H]1c1cc(O)c(O)c(O)c1-c1c([C@H]2Oc3cc(O)cc(O)c3C[C@H]2O)cc(O)c(O)c1O)c1cc(O)c(O)c(O)c1 | > 4 mM (inactive) |
| Nc1nc(-c2ccccc2)cc(=O)[nH]1 | > 4 mM (inactive) |
| Cc1noc(C)c1C(=O)N1CCc2ccccc21 | > 4 mM (inactive) |
| Nc1ccc(NS(=O)(=O)c2ccc(N)cc2)cc1 | > 4 mM (inactive) |
| Cn1nnc2cc(C(=O)N3CCSCC3)ccc21 | > 4 mM (inactive) |
| Cc1ccc(N2NC(=O)CC2=O)cc1C | > 4 mM (inactive) |
| Cn1c(=O)[nH]c2nc[nH]c2c1=O | > 4 mM (inactive) |
| CCC(CCC(C)[C@H]1CCC2C3CC=C4C[C@@H](O)CC[C@]4(C)C3CC[C@@]21C)C(C)C (stereo partly specified) | > 4 mM (inactive) |
| Cn1ccc(C(=O)NC(=S)NN2CCOCC2)n1 | > 4 mM (inactive) |
| COc1cccc(NC(=O)c2ncn[nH]2)c1 | > 4 mM (inactive) |
| NC(=O)CSc1nc2ccccc2[nH]1 | > 4 mM (inactive) |
| Cc1cc(C)nc(Nc2n[nH]c(Cc3ccccc3)n2)n1 | > 4 mM (inactive) |
| CC(C)NC(=S)N1CCN(S(C)(=O)=O)CC1 | > 4 mM (inactive) |
| Cn1c(O)c(C=NCC2CCNCC2)c(=O)n(C)c1=O | > 4 mM (inactive) |
| Cc1cc(C(=O)NCc2ccccc2Br)no1 | > 4 mM (inactive) |
| Nc1nc(-c2ccc(F)c(F)c2)cs1 | > 4 mM (inactive) |
| Cn1nc(C(C)(C)C)cc1N | > 4 mM (inactive) |
| O=C(Cc1ccc(F)cc1)Nc1ncccn1 | > 4 mM (inactive) |
| O=C(/C=C/C=C/c1ccc2c(c1)OCO2)N1CCCCC1 | > 4 mM (inactive) |
| C(=N\n1cnnc1)/c1cccs1 | > 4 mM (inactive) |
| NC(C(=O)O)C(O)c1ccccc1 (stereo unspecified) | > 4 mM (inactive) |

| SMILES | Kd |
| --- | --- |
| CC(=O)O[C@H]1CCC2(C)C3=C(CCC2C1(C)C)[C@]1(C)CCC(C(C)CCC=C(C)C)[C@@]1(C)CC3 (stereo partly specified) | > 4 mM (inactive) |
| CC(=O)c1cnc(Nc2nc(C)c3ccccc3n2)nc1C | > 4 mM (inactive) |
| O=C(c1ccccc1)N1CCOCC1 | > 4 mM (inactive) |
| CN1CCC(N2CCOCC2)CC1 | > 4 mM (inactive) |
| Clc1ccccc1-c1nc(-c2cccnc2)no1 | > 4 mM (inactive) |
| N#Cc1cn(CC(=O)N2CCCC2)c2ccccc12 | > 4 mM (inactive) |
| Nc1cc(F)ccc1-n1ccnc1 | > 4 mM (inactive) |
| Cc1nnc(SCC(N)=O)c2ccccc12 | > 4 mM (inactive) |
| CC(=O)Nc1ccc(N2CCOCC2)cc1 | > 4 mM (inactive) |
| CC[C@H]1CN2CCC1C[C@@H]2[C@@H](O)c1ccnc2ccc(OC)cc12 (stereo partly specified) | > 4 mM (inactive) |
| C#CCCCCCCCCCCCc1ccco1 | > 4 mM (inactive) |
| O=c1c2ccccc2nc2n1CCCCN2 | > 4 mM (inactive) |
| Cn1cc(Cl)c(C(=O)NC2CCCCCC2)n1 | > 4 mM (inactive) |
| CCNC(CC(=O)Nc1cccc([N+](=O)[O-])c1)C(=O)O (stereo unspecified) | > 4 mM (inactive) |
| CC(C)=CCc1c2c(c3occ(-c4ccc(O)c(O)c4)c(=O)c3c1O)C=CC(C)(C)O2 | > 4 mM (inactive) |
| COCCn1c(C)cc(O)cc1=O | > 4 mM (inactive) |
| O=c1c[n+]([O-])c2ccccc2n1OCc1ccccc1 | > 4 mM (inactive) |
| CC(=O)c1c(C)n([O-])c2ccccc2[n+]1=O | > 4 mM (inactive) |
| CC(=O)NCS(=O)(=O)c1ccc(C)cc1 | > 4 mM (inactive) |
| Nc1ccccc1N1CCOCC1 | > 4 mM (inactive) |
| COCC(=O)Nc1ccc(F)cc1F | > 4 mM (inactive) |
